A short description of series [1]: In vitro dissolution of pellets, USP dissolution apparatus II (paddle). The settings on record: for Release Triamcinolone, %: n = 1.
Protocol: The parameters used in the dissolution study are given below.
A USP dissolution apparatus II (paddle) (Agilent Technologies, Inc., Santa Clara, CA) was used for dissolution method parameters selection. For accelerated dissolution method development multiple parameters were evaluated: • 1). temperature of the dissolution media; • 2). initial wetting of the pellet (by adding detergent and organic solvent); • 3). the mixing speed; and • 4). the pH of the dissolution media used.
Water was used as the starting media. A sampling timepoint (at 66 or 90 hours) was used for initial dissolution parameter assessment.
The dissolution tests were performed in “sink” conditions where the amount of solvent was at least 3 times higher than the minimum amount of solvent required for dissolution.
Therefore, for the next step of the dissolution method development, 20% of ethanol was added to the dissolution media with a phosphate buffer.
Samples were taken at 8, 24, 48, 72 and 84 hours.
For series [2] the following is noted: cited from earlier work.
Series [3] in a line: Saturation solubility of naltrexone in different media. The class given is physicochemical. Particulars: thermodynamic from solid, read-out: Solubility of API.
Series [4] can be described thus: Toxicokinetics after subcutaneous implant. The class given is in vivo, Yucatan minipigs. Particulars: single subcutaneous implant, 1 g NTX (Group 2) vs 1 g NTX with 10 mg TCA (Group 3).

The term solubility denotes the dissolved amount per volume that the medium holds.

Molecules are shown by their SMILES. Values after ≈ are worked out from the molar mass of the structure shown. Where a name gives a salt, the structure may show the parent alone. Read-outs that look alike come from different tables or passages of the source.

`CC1(C)O[C@@H]2C[C@H]3[C@@H]4CCC5=CC(=O)C=C[C@]5(C)[C@@]4(F)[C@@H](O)C[C@]3(C)[C@]2(C(=O)CO)O1` [triamcinolone acetonide (TCA), triamcinolone acetonide]: the “Release of triamcinolone acetonide (TCA) from pellets” value (from here on “Release of triamcinolone acetonide”) in series [1] (10 mM Acetate buffer pH 3.8, 50 RPM at 37° C., 8 hrs) is 24.63%; in series [1] (10 mM Acetate buffer pH 3.8, 50 RPM at 37° C., 24 hrs), 62.64%; in series [1] (10 mM Acetate buffer pH 3.8, 50 RPM at 37° C., 48 hrs) it was 79.58%; in series [1] (10 mM Acetate buffer pH 3.8, 50 RPM at 37° C., 72 hrs), 79.36%; in series [1] (10 mM Acetate buffer pH 5.0, 50 RPM at 37° C., 8 hrs), 17.27%; in series [1] (10 mM Acetate buffer pH 5.0, 50 RPM at 37° C., 24 hrs), 46.65%. Moreover, the “Release of triamcinolone acetonide” value is reported as 69.50% in series [1] (10 mM Acetate buffer pH 5.0, 50 RPM at 37° C., 48 hrs); 78.13% in series [1] (10 mM Acetate buffer pH 5.0, 50 RPM at 37° C., 72 hrs); 4.93% in series [1] (10 mM Acetate buffer pH 5.8, 50 RPM, 8 hrs); 15.62% in series [1] (10 mM Acetate buffer pH 5.8, 50 RPM, 24 hrs); 23.89% in series [1] (10 mM Acetate buffer pH 5.8, 50 RPM, 48 hrs); 29.78% in series [1] (10 mM Acetate buffer pH 5.8, 50 RPM, 72 hrs). Further, the “Release of triamcinolone acetonide” value in series [1] (10 mM phosphate buffer pH 5.0, 50 RPM at 37° C., 8 hrs) was 15.30%; in series [1] (10 mM phosphate buffer pH 5.0, 50 RPM at 37° C., 24 hrs), 47.19%; in series [1] (10 mM phosphate buffer pH 5.0, 50 RPM at 37° C., 48 hrs), 75.78%; in series [1] (10 mM phosphate buffer pH 5.0, 50 RPM at 37° C., 72 hrs) it was 81.56%; in series [1] (10 mM phosphate buffer pH 6.0, 50 RPM at 37° C., 8 hrs), 12.51%; in series [1] (10 mM phosphate buffer pH 6.0, 50 RPM at 37° C., 24 hrs) it was 41.72%. The “Release of triamcinolone acetonide” value in series [1] (10 mM phosphate buffer pH 6.0, 50 RPM at 37° C., 48 hrs) was 74.31%; in series [1] (10 mM phosphate buffer pH 6.0, 50 RPM at 37° C., 72 hrs), 80.00%; in series [1] (10 mM phosphate buffer pH 7.4, 150 RPM at 37° C., 8 hrs), 16.66%; in series [1] (10 mM phosphate buffer pH 7.4, 150 RPM at 37° C., 24 hrs), 39.78%; in series [1] (10 mM phosphate buffer pH 7.4, 150 RPM at 37° C., 48 hrs), 52.83%; in series [1] (10 mM phosphate buffer pH 7.4, 150 RPM at 37° C., 72 hrs), 59.58%. Besides, the “Release of triamcinolone acetonide” value in series [1] (10 mM phosphate buffer/20% EtOH pH 6.0, 50/75 RPM at 37° C., 8 hrs) was found to be 33.18%; in series [1] (10 mM phosphate buffer/20% EtOH pH 6.0, 50/75 RPM at 37° C., 24 hrs) it was 87.99%; in series [1] (10 mM phosphate buffer/20% EtOH pH 6.0, 50/75 RPM at 37° C., 48 hrs), 109.67%; in series [1] (10 mM phosphate buffer/20% EtOH pH 6.0, 50/75 RPM at 37° C., 72 hrs) it was 109.28%; in series [1] (10 mM phosphate buffer/20% EtOH pH 6.5, 50/75 RPM at 37° C., 8 hrs) it was 28.58%; in series [1] (10 mM phosphate buffer/20% EtOH pH 6.5, 50/75 RPM at 37° C., 24 hrs), 76.69%. Also, the “Release of triamcinolone acetonide” value was 104.85% in series [1] (10 mM phosphate buffer/20% EtOH pH 6.5, 50/75 RPM at 37° C., 48 hrs); 104.64% in series [1] (10 mM phosphate buffer/20% EtOH pH 6.5, 50/75 RPM at 37° C., 72 hrs); 23.48% in series [1] (10 mM phosphate buffer/20% EtOH pH 7.4, 50/75 RPM at 37° C., 8 hrs); 64.52% in series [1] (10 mM phosphate buffer/20% EtOH pH 7.4, 50/75 RPM at 37° C., 24 hrs); 98.10% in series [1] (10 mM phosphate buffer/20% EtOH pH 7.4, 50/75 RPM at 37° C., 48 hrs); 107.29% in series [1] (10 mM phosphate buffer/20% EtOH pH 7.4, 50/75 RPM at 37° C., 72 hrs). In addition, the “Release Triamcinolone, %” value in series [1] (10 mM PBS pH 7.4, 50 RPM, 37° C., 66 hrs) turned out to be 33.12%; in series [1] (20 mM Acetate Buffer pH 3.8, 50 RPM, 37° C., 66 hrs), 83.52%; in series [1] (0.05N HCl, pH 1, 50 RPM, 37° C., 66 hrs), 85.59%; in series [1] (0.1% SLS in Water, 50 RPM, 37° C., 66 hrs), 39.09%; in series [1] (20% EtOH, 80% Water, 50 RPM, 37° C., 90 hrs), 61.77%; in series [1] (Water, 50 RPM, 37° C., 90 hrs), 31.50%. Moreover, the “Release Triamcinolone, %” value in series [1] (Water, 60 RPM, 60° C., 66 hrs) is given as 38.63%; in series [1] (Water, 150 RPM, 37° C., 66 hrs) it was 33.47%.
With `O=C1CC[C@@]2(O)[C@H]3Cc4ccc(O)c5c4[C@@]2(CCN3CC2CC2)[C@H]1O5` [naltrexone hydrochloride], in series [2], the “solubility in EtOH” value was below 1000 µg/mL.
For `O=C1CC[C@@]2(O)[C@H]3Cc4ccc(O)c5c4[C@@]2(CCN3CC2CC2)[C@H]1O5` [naltrexone, (4R,4aS,7aR,12bS)-3-(cyclopropylmethyl)-4a,9-dihydroxy-2,4,5,6,7a,13-hexahydro-1H-4,12-methanobenzofuro[3,2-e]isoquinolin-7-one], the solubility came out at 770 µg/mL in series [3] (pH 5, aqueous buffer, Hanks' Balanced Salt solution pH5.0); 5210 µg/mL (≈ 15.3 mM) in series [3] (pH 5, aqueous buffer, PBS pH5.0 (1:5)); 3120 µg/mL (≈ 9.14 mM) in series [3] (pH 5.5, aqueous buffer, PBS pH5.5 (1:5)); 5730 µg/mL in series [3] (pH 5.5, aqueous with cosolvent or surfactant or cyclodextrin, 20% EtOH + 80% PBS pH5.5 (1:10)); 2910 µg/mL (≈ 8.52 mM) in series [3] (pH 6, aqueous buffer, PBS pH6.0 (1:5)); 670 µg/mL in series [3] (pH 7.4, aqueous buffer, Hanks' Balanced Salt solution pH7.4). The solubility in series [3] (pH 7.4, aqueous buffer, PBS pH7.4) was found to be 960 µg/mL (≈ 2.81 mM); in series [3] (pH 8, aqueous buffer, Hanks' Balanced Salt solution pH8.0), 650 µg/mL; in series [3] (pH 8, aqueous buffer, PBS pH8.0) it was 750 µg/mL (≈ 2.2 mM). In addition, in series [4], the “Systemic exposure to NTX (Cmax and AUC)” value is reported as “did not appear to be impacted”.

Source of the values: patent US12569430B2 (priority 2021, dated 2026).
